From a compilation of properties of binary mixtures (doi:10.1021/acs.jced.1c00023)

Test: xn = mol fraction of the nth substance listed
Details: 101.3 kPa

Oc1cccc(O)c1O + CCCCCCCCCCCC[N+](C)(C)C.[Br-]
x2 = 0.333
Details | electrical conductivity [S/m] | speed of sound [m/s] | viscosity [mPa·s]
293.15 K | 0.0047 | 1614.6 | 7500
298.15 K | 0.0082 | 1592.1 | 5650
303.15 K | 0.0139 | 1572.5 | 3900
308.15 K | 0.0234 | 1554.9 | 2300
313.15 K | 0.0364 | 1538.8 | 1500
318.15 K | 0.0539 | 1523.4 | 1000
323.15 K | 0.0773 | 1508.7 | 750
328.15 K | 0.105 | 1494.3 | 550

Oc1cccc(O)c1O + CCC[N+](CCC)(CCC)CCC.[Br-]
x2 = 0.5
Details | electrical conductivity [S/m] | speed of sound [m/s] | viscosity [mPa·s]
298.15 K | 0.0031 | 1855.2 | 25000
318.15 K | 0.0259 | 1704.1 | 4800
323.15 K | 0.04 | 1674.1 | 3500
328.15 K | 0.0703 | 1652.9 | 2550
